pIC50: −log10 of the molar value.
Assays:
[1] = test system: cellular GLS activity in PC3 cells; test: GLS Cell Potency Assay (PC3 coupled assay measuring cellular glutamate depletion); format: cell-based; details: Homo sapiens, PC-3; PC3 cells, 6 h incubation, cellular glutamate depletion; read-out: Assay b) GLS Cell Potency Assay IC50
Source text: (§1) The following assays were used to measure the effects of the compounds of the present invention: a) GLS Enzyme Potency Assay; b) GLS Cell Potency Assay; c) GLS Cell Proliferation Assay. During the description of the assays, generally: • i. The following abbreviations have been used: CO2=Carbon dioxide; DMEM=Dulbecco's Modified Eagle Medium; DMSO=Dimethyl sulphoxide; EDTA=Ethylenediaminetetraacetic acid; EGTA=Ethylene glycol tetraacetic acid; FCS=Foetal calf serum; h=Hour(s); NBS=Non-binding surface; SDS=Sodium dodecyl sulphate; TRIS=Tris(Hydroxymethyl)aminomethane. • ii. IC50 values were calculated using a smart fitting model in Genedata. […] Assay a): GLS Enzyme Potency Assay
Compounds were assessed for their potential to inhibit cellular GLS activity by use of a PC3 coupled assay measuring cellular glutamate depletion. […] DMSO concentration was maintained at 0.3% by back filling with DMSO solution. PC3 cells were grown in phenol free DMEM, 10% dialyzed FCS, 2 mM glutamine and following dispersal by trypsinisation were plated at 5.6×10^3 cells per well in 40 μl of growth medium directly into the 384 well assay plates containing dispensed compound. After incubation for 6 h at 37° C., 5% CO2 growth media was aspirated and cells lysed in 15 μl of buffer containing 10 mM TRIS pH7.4, 100 mM NaCl, 1 mM EDTA, 1 mM EGTA, 1 mM NaF, 20 mM Na4P2O7, 2 mM Na3VO4, 1% Triton X-100, 10% glycerol, 0.1% SDS and 0.5% deoxycholate.

GLS1 = GLS1 (Homo sapiens (Human), UniProt O94925); test: GLS Enzyme Potency Assay (Glutamate Oxidase/AmplexRed coupled assay); format: biochemical; details: 6His tagged GLS protein (amino acids 63-669), 60 minutes reaction with glutamine
Source text: The following assays were used to measure the effects of the compounds of the present invention: a) GLS Enzyme Potency Assay; b) GLS Cell Potency Assay; c) GLS Cell Proliferation Assay. During the description of the assays, generally: • i. The following abbreviations have been used: CO2=Carbon dioxide; DMEM=Dulbecco's Modified Eagle Medium; DMSO=Dimethyl sulphoxide; EDTA=Ethylenediaminetetraacetic acid; EGTA=Ethylene glycol tetraacetic acid; FCS=Foetal calf serum; h=Hour(s); NBS=Non-binding surface; SDS=Sodium dodecyl sulphate; TRIS=Tris(Hydroxymethyl)aminomethane. • ii. IC50 values were calculated using a smart fitting model in Genedata. The IC50 value was the concentration of test compound that inhibited 50% of biological activity. Assay a): GLS Enzyme Potency Assay
A Glutamate Oxidase/AmplexRed coupled assay was used to measure the ability of compounds to bind to and inhibit the activity of GLS1 in vitro. 6His tagged GLS protein (amino acids 63-669) expressed in E. Coli was purified and stored at −80° C. in aliquots. GLS1 was diluted to 2×working concentration and incubated at r.t. to allow the tetrameric/dimeric forms to reach steady state. Assay measurements were performed in buffer comprising 50 mM TRIS pH 7.8, 100 mM NaPO4, pH 7.8, 0.001% v/v Tween20. Purified recombinant GLS1 protein was diluted in assay buffer to 12 nM and pre-incubated at r.t. for 30 minutes. Test compounds were prepared by dilution in 100% DMSO to give the correct dose range for 12 point concentration response and an appropriate volume (2.5-60 nl) dispensed into 384 well micro assay plates (Greiner product code 784900) using a Labcyte Echo 555 acoustic dispenser. DMSO concentration was maintained at 2% by back filling with DMSO solution. 3 μL of diluted GLS1 protein (12 nM) was then dispensed into each well using a BioRaptr automated dispenser (Beckman-Coulter) and incubated for 15 minutes at r.t. 3 μl of 100 mM glutamine diluted in assay buffer was then added and the reaction incubated at r.t. for 60 minutes. The reaction was then stopped by addition of 45 μM 6-(2-bromoethynyl)-2,3-dimethyl-quinazolin-4-one, 75 μM Amplex Red, 0.375 units/mL Horseradish Peroxidase, 0.12 units/mL Glutamate Oxidase in 100 mM TRIS pH7.5. After 30 minutes at room temp in the dark, plates were read on a Perkin Elmer EnVision using 535/590 nm optic filters and raw data analysed using Genedata to generate IC50 values. An artefact version of the assay where the 6His tagged GLS protein and glutamine were replaced with assay buffer was also used to rule out non specific effects on the assay components.

NCI-H1703 cells = test: GLS Cell Proliferation Assay (NCI-H1703); format: cell-based; details: Homo sapiens, 120 h; NCI-H1703 cells, 5 days incubation, Sytox Green; read-out: Assay c) GLS Cell Proliferation Assay
Source text: as §1
The ability of compounds to inhibit cell growth was measured using a 384 well plate NCI-H1703 cell proliferation assay. […] DMSO concentration was maintained at 0.3% by back filling with DMSO solution. Plates were incubated for 5 days at 37° C., 5% CO2, Sytox Green and Saponin added to final concentration of 2 μM and 0.25% respectively and incubated for 6 h prior to analysis. […] IC50 values were calculated by curve fitting to max inhibition of day zero growth using GeneData software analysis.

Chain of GLS1 (O94925 63-669): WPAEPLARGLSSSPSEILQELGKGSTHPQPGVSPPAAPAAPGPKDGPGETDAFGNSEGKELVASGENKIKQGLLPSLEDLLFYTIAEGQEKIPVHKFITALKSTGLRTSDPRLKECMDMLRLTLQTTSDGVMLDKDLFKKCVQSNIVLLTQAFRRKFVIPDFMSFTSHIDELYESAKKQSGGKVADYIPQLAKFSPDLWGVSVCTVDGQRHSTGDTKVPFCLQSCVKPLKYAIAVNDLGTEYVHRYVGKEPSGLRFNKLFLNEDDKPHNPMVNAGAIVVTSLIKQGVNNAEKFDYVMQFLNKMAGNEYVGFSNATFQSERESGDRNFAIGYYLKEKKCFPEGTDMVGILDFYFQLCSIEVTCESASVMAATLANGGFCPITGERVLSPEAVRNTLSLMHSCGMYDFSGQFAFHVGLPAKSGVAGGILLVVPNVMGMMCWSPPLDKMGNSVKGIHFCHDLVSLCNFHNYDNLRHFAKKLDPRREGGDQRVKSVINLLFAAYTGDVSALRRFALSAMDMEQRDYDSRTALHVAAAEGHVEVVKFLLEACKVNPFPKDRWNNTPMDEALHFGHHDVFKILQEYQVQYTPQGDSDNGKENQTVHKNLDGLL

CO[C@H](C(=O)Nc1ccc(N2CC[C@@H](Nc3cccnn3)C2)nn1)c1cccc(OC(F)F)c1 [Example 1, (2S)-2-[3-(Difluoromethoxy)phenyl]-2-methoxy-N-[6-[(3R)-3-(pyridazin-3-ylamino)pyrrolidin-1-yl]pyridazin-3-yl]acetamide]
pIC50 [1]: 9.00 | pIC50 (GLS1): 7.61 | pIC50 (NCI-H1703 cells): 8.05

CO[C@H](C(=O)Nc1ccc(N2CC[C@@H](Nc3cccnn3)C2)nn1)c1cccc(OC(F)(F)F)c1 [Example 2, (2S)-2-[3-(Trifluoromethoxy)phenyl]-2-methoxy-N-[6-[(3R)-3-(pyridazin-3-ylamino)pyrrolidin-1-yl]pyridazin-3-yl]acetamide]
pIC50 [1]: 9.00 | pIC50 (GLS1): 7.02 | pIC50 (NCI-H1703 cells): 7.96

COc1cccc([C@H](OC)C(=O)Nc2ccc(N3CC[C@@H](Nc4cccnn4)C3)nn2)c1 [Example 3, (2S)-2-Methoxy-2-(3-methoxyphenyl)-N-[6-[(3R)-3-(pyridazin-3-ylamino)pyrrolidin-1-yl]pyridazin-3-yl]acetamide]
pIC50 [1]: 9.00 | pIC50 (GLS1): 7.53 | pIC50 (NCI-H1703 cells): 8.52

COc1ccccc1CC(=O)Nc1ccc(N2CC[C@@H](Nc3cccnn3)C2)nn1 [Example 4, 2-(2-Methoxyphenyl)-N-[6-[(3R)-3-(pyridazin-3-ylamino)pyrrolidin-1-yl]pyridazin-3-yl]acetamide]
pIC50 [1]: 8.15 | pIC50 (GLS1): 7.51 | pIC50 (NCI-H1703 cells): 7.37

O=C(Cc1ccccc1C(F)(F)F)Nc1ccc(N2CC[C@@H](Nc3cccnn3)C2)nn1 [Example 5, N-[6-[(3R)-3-(Pyridazin-3-ylamino)pyrrolidin-1-yl]pyridazin-3-yl]-2-[2-(trifluoromethyl)phenyl]acetamide]
pIC50 [1]: 9.00 | pIC50 (GLS1): 7.51 | pIC50 (NCI-H1703 cells): 8.52

O=C(Cc1ccccc1OC(F)(F)F)Nc1ccc(N2CC[C@@H](Nc3cccnn3)C2)nn1 [Example 6, N-[6-[(3R)-3-(Pyridazin-3-ylamino)pyrrolidin-1-yl]pyridazin-3-yl]-2-[2-(trifluoromethoxy)phenyl]acetamide]
pIC50 [1]: 9.00 | pIC50 (GLS1): 7.60 | pIC50 (NCI-H1703 cells): 7.92
